In patent US9242998B2, “Tetracyclic heterocycle compounds and methods of use thereof for the treatment of hepatitis C” (priority 2013, dated 2016):

Assays:
HCV genotype 1a replicon = experiment: HCV replicon assay, genotype 1a (cell ELISA for replicon-encoded NS3/4A); format: cell-based; details: Hepatitis C virus, 96 h, read-out: 1a IC50
Description: (§1) Measurement of inhibition by compounds was performed using the HCV replicon system. Several different replicons encoding different HCV genotypes or mutations were used. In addition, potency measurements were made using different formats of the replicon assay, including different ways of measurements and different plating formats. See Jan M. Vrolijk et al., A replicons-based bioassay for the measurement of interferons in patients with chronic hepatitis C, 110 J. V[…] 201 (2003); Steven S. Carroll et al., Inhibition of Hepatitis C Virus RNA Replication by 2′-Modified Nucleoside Analogs, 278(14) J. BIOLOGICAL CHEMISTRY 11979 (2003). However, the underlying principles are common to all of these determinations, and are outlined below.
(§2) Stable neomycin phosphotransferase encoding replicons-harboring cell lines were used, so all cell lines were maintained under G418 selection prior to the assay. Potency was determined using a cell ELISA assay with an antibody to the replicons encoded NS3/4a protease. See Caterina Trozzi et al., In Vitro Selection and Characterization of Hepatitis C Virus Serine Protease Variants Resistant to an Active-Site Peptide Inhibitor, 77(6) J. Virol. 3669 (2003). To initiate an assay, replicon cells were plated in the presence of a dilution series of test compound in the absence of G418. Typically, the assays were performed in a 96-well plate formate for manual operation, or a 384-well plate format for automated assay. Replicon cells and compound were incubated for 96 hours. At the end of the assay, cells were washed free of media and compound, and the cells were then lysed. RNA was quantified indirectly through detection of replicon-encoded NS3/4A protein levels, through an ELISA-based assay with an antibody specific for NS3/4A. IC50 determinations were calculated as a percentage of a DMSO control by fitting the data to a four-parameter fit function and the data obtained is provided in the table below.
(§3) Data for selected compounds of the present invention was obtained for genotypes 1a and 1b using this method and is provided in the table below: […]

HCV genotype 1b replicon = experiment: HCV replicon assay, genotype 1b (cell ELISA for replicon-encoded NS3/4A); format: cell-based; details: Hepatitis C virus, 96 h, read-out: 1b IC50
Description: as §1, §2, §3

| SMILES | IC50 (HCV genotype 1a replicon) | IC50 (HCV genotype 1b replicon) |
| --- | --- | --- |
| CNC(=O)c1c(-c2cnn(C(C)C)c2)oc2cc(N(C)S(C)(=O)=O)c(-c3ccc4c(n3)-c3cc5c(F)cccc5n3CO4)cc12 [Compound 34] | 15 nM | 14 nM |
| CNC(=O)c1c(-n2cnc(C)n2)oc2cc(N(C)S(C)(=O)=O)c(-c3ccc4c(n3)-c3cc5c(F)cccc5n3CO4)cc12 [Compound 41] | 82 nM | 22 nM |
| CNC(=O)c1c(C(=O)N(C)C)oc2cc(N(C)S(C)(=O)=O)c(-c3ccc4c(n3)-c3cc5c(F)cccc5n3CO4)cc12 [Compound 55] | 4 nM | 6.4 nM |
| CNC(=O)c1c(-c2ccc(C(F)(F)F)nc2)oc2cc(N(C)S(C)(=O)=O)c(-c3ccc4c(n3)-c3cc5c(F)cccc5n3CO4)cc12 [Compound 35] | 2.8 nM | 3.1 nM |
| CNC(=O)c1c(C=C(C)C)oc2cc(N(C)S(C)(=O)=O)c(-c3ccc4c(n3)-c3cc5c(F)cccc5n3CO4)cc12 [Compound 3] | 3.6 nM | 5.8 nM |
| CNC(=O)c1c(-n2ccccc2=O)oc2cc(N(C)S(C)(=O)=O)c(-c3ccc4c(n3)-c3cc5c(F)cccc5n3CO4)cc12 [Compound 37] | 2.2 nM | 3 nM |
| CNC(=O)c1c(-c2ccnc(OC)c2)oc2cc(N(C)S(C)(=O)=O)c(-c3ccc4c(n3)-c3cc5c(F)cccc5n3CO4)cc12 [Compound 1, 5-(11-fluoro-6H-pyrido[2′,3′:5,6][1,3]oxazino[3,4-a]indol-2-yl)-2-(2-methoxypyridin-4-yl)-N-methyl-6-(N-methylmethylsulfonamido)benzofuran-3-carboxamide] | 11 nM | 14 nM |
| CNC(=O)c1c(/C(C)=N/OC)oc2cc(N(C)S(C)(=O)=O)c(-c3ccc4c(n3)-c3cc5c(F)cccc5n3CO4)cc12 [Compound 59, 5-(11-fluoro-6H-pyrido[2′,3′:5,6][1,3]oxazino[3,4-a]indol-2-yl)-2-(1-(methoxyimino)ethyl)-N-methyl-6-(N-methylmethylsulfonamido)benzofuran-3-carboxamide] | 34 nM | 13 nM |
| CNC(=O)c1c(C2CC2)oc2cc(N(C)S(C)(=O)=O)c(-c3ncc4c(n3)-c3cc5c(F)cccc5n3CO4)cc12 [Compound 53] | 33 nM | 30 nM |
| CNC(=O)c1c(-c2cccnc2O)oc2cc(N(C)S(C)(=O)=O)c(-c3ccc4c(n3)-c3cc5c(F)cccc5n3CO4)cc12 [Compound 17, 5-(11-fluoro-6H-pyrido[2′,3′:5,6][1,3]oxazino[3,4-a]indol-2-yl)-2-(2-hydroxypyridin-3-yl)-N-methyl-6-(N-methylmethylsulfonamido)benzofuran-3-carboxamide] | 324 nM | 393 nM |
| CNC(=O)c1c(-n2ccnc2)oc2cc(N(C)S(C)(=O)=O)c(-c3ccc4c(n3)-c3cc5c(F)cccc5n3CO4)cc12 [Compound 36, 5-(11-fluoro-6H-pyrido[2′,3′:5,6][1,3]oxazino[3,4-a]indol-2-yl)-2-(1H-imidazol-1-yl)-N-methyl-6-(N-methylmethylsulfonamido)benzofuran-3-carboxamide] | 14 nM | 20 nM |
| CNC(=O)c1c(-c2ccc(C(F)F)nc2)oc2cc(N(C)S(C)(=O)=O)c(-c3ccc4c(n3)-c3cc5c(F)cccc5n3CO4)cc12 [Compound 9] | 2.5 nM | 3.4 nM |
| CNC(=O)c1c(-c2ccc(C)nc2)oc2cc(N(C)S(C)(=O)=O)c(-c3ccc4c(n3)-c3cc5c(F)cccc5n3CO4)cc12 [Compound 7] | 8.5 nM | 13 nM |
| CNC(=O)c1c(-c2ccc(OC(C)C)nc2)oc2cc(N(C)S(C)(=O)=O)c(-c3ccc4c(n3)-c3cc5c(F)cccc5n3CO4)cc12 [Compound 10] | 15 nM | 13 nM |
| CNC(=O)c1c(-n2cc(C)cn2)oc2cc(N(C)S(C)(=O)=O)c(-c3ccc4c(n3)-c3cc5c(F)cccc5n3CO4)cc12 [Compound 39] | 48 nM | 67 nM |
| CNC(=O)c1c(-c2ccc(F)cn2)oc2cc(N(C)S(C)(=O)=O)c(-c3ccc4c(n3)-c3cc5c(F)cccc5n3CO4)cc12 [Compound 30] | 11 nM | 25 nM |
| CNC(=O)c1c(-c2cn(C)nc2C)oc2cc(N(C)S(C)(=O)=O)c(-c3ccc4c(n3)-c3cc5c(F)cccc5n3CO4)cc12 [Compound 16] | 26 nM | 8.5 nM |

| SMILES | IC50 (HCV genotype 1a replicon) | IC50 (HCV genotype 1b replicon) |
| --- | --- | --- |
| CNC(=O)c1c(C2CC2(C)C)oc2cc(N(C)S(C)(=O)=O)c(-c3ccc4c(n3)-c3cc5c(F)cccc5n3CO4)cc12 (stereo not drawn) [Compound 49] | 27 nM | 22 nM |
| CNC(=O)c1c(C2=CCCC2)oc2cc(N(C)S(C)(=O)=O)c(-c3ncc4c(n3)-c3cc5c(F)cccc5n3CO4)cc12 [Compound 47] | 5.9 nM | 8.8 nM |
| CNC(=O)c1c(C(=O)N2CCOCC2)oc2cc(N(C)S(C)(=O)=O)c(-c3ccc4c(n3)-c3cc5c(F)cccc5n3CO4)cc12 [Compound 57] | 232 nM | 135 nM |
| CNC(=O)c1c(-c2cnc(OC)nc2)oc2cc(N(C)S(C)(=O)=O)c(-c3ccc4c(n3)-c3cc5c(F)cccc5n3CO4)cc12 [Compound 13] | 16 nM | 9.4 nM |
| CNC(=O)c1c(-c2cccnc2OC)oc2cc(N(C)S(C)(=O)=O)c(-c3ccc4c(n3)-c3cc5c(F)cccc5n3CO4)cc12 [Compound 15] | 23 nM | 34 nM |
| CNC(=O)c1c(C2CC2)oc2cc(N(C)S(C)(=O)=O)c(-c3ccc4c(n3)-c3cc5c(F)cccc5n3CO4)cc12 [Compound 2] | 13 nM | 12 nM |
| CNC(=O)c1c(C2=CCCC2)oc2cc(N(C)S(C)(=O)=O)c(-c3ncc4c(n3)-c3cc5ccccc5n3CO4)cc12 [Compound 46] | 15 nM | 13 nM |
| CNC(=O)c1c(N2CCOC2=O)oc2cc(N(C)S(C)(=O)=O)c(-c3ccc4c(n3)-c3cc5c(F)cccc5n3CO4)cc12 [Compound 43] | 21 nM | 50 nM |
| CNC(=O)c1c(-c2ccc(C(F)F)nc2)oc2cc(N(C)S(C)(=O)=O)c(-c3ccc4c(n3)-c3cc5c(F)cccc5n3C(CO)O4)cc12 (stereo not drawn) [Compound 22] | 3.5 nM | 2.5 nM |
| CNC(=O)c1c(-c2ccc(C(F)(F)F)cc2)oc2cc(N(C)S(C)(=O)=O)c(-c3ccc4c(n3)-c3cc5c(F)cccc5n3CO4)cc12 [Compound 8] | 6.3 nM | 4.5 nM |
| CNC(=O)c1c(-c2ccc(C(F)(F)F)cn2)oc2cc(N(C)S(C)(=O)=O)c(-c3ccc4c(n3)-c3cc5c(F)cccc5n3CO4)cc12 [Compound 31] | 5.9 nM | 3.9 nM |
| CNC(=O)c1c(C2CC2)oc2cc(N(C)S(C)(=O)=O)c(-c3cc4c(cn3)OC(CO)n3c-4cc4c(F)cccc43)cc12 (stereo not drawn) [Compound 52] | 52 nM | 23 nM |
| CNC(=O)c1c(C2CC2(F)F)oc2cc(N(C)S(C)(=O)=O)c(-c3ccc4c(n3)-c3cc5c(F)cccc5n3CO4)cc12 (stereo not drawn) [Compound 50, 2-(2,2-difluorocyclopropyl)-5-(11-fluoro-6H-pyrido[2′,3′:5,6][1,3]oxazino[3,4-a]indol-2-yl)-N-methyl-6-(N-methylmethylsulfonamido)benzofuran-3-carboxamide] | 22 nM | 38 nM |
| CNC(=O)c1c(-c2ccc(OC(F)F)nc2)oc2cc(N(C)S(C)(=O)=O)c(-c3ccc4c(n3)-c3cc5c(F)cccc5n3C(CO)O4)cc12 (stereo not drawn) [Compound 23] | 2.8 nM | 2.9 nM |
| CNC(=O)c1c(-c2ccc(OC)nc2)oc2cc(N(C)S(C)(=O)=O)c(-c3ccc4c(n3)-c3nc5cccc(F)c5n3CO4)cc12 [Compound 19, 5-(8-fluoro-6H-benzo[4,5]imidazo[1,2-c]pyrido[2,3-e][1,3]oxazin-2-yl)-2-(6-methoxypyridin-3-yl)-N-methyl-6-(N-methylmethylsulfonamido)benzofuran-3-carboxamide] | 35 nM | 13 nM |
| CCOc1ccc(-c2oc3cc(N(C)S(C)(=O)=O)c(-c4ccc5c(n4)-c4cc6c(F)cccc6n4CO5)cc3c2C(=O)NC)cn1 [Compound 6] | 17 nM | 12 nM |
